The record followed here is a melting point compilation (Tetko et al.; mined from patent text by program, amines drawn as free bases though some values may be those of a salt).

Each structure is given as a SMILES string.

The term melting point denotes the temperature of the solid-liquid transition. The molecule `Cc1ccccc1-c1cccc(/C=C/C(=O)Nc2ccc(CN3CCCCC3)cc2)c1` gave a melting point of 185 to 187 °C.
For `CC1(C)SC(c2ccccc2C(=O)O)NC1C(=O)O` (stereo not given) the value was 185 to 186 °C; for `COc1c(C)c(N2CCN(c3ccc(C(F)(F)F)cc3)CC2)c(C)c2c1OC(C)C2` (stereo not given), 142 to 145 °C.
For `CCC(C)c1ccccc1SC1=C(O)CC(CCc2ccccc2)(c2ccccc2)OC1=O` (stereo not given) the value was 67 to 68 °C.
The molecule `CO[C@H]1CC[C@H]([C@H]2CC[C@H](CCC=O)CC2)CC1` returned a melting point of 36 °C.
For `COc1ccc(Nc2cccc3c2C(=O)N(C2CCC(=O)NC2=O)C3=O)cc1` (stereo not given) the value was 228 to 230 °C; for `Cc1cccn2c(=O)c(C(=O)NC3CCCC3)cnc12`, 170 to 171 °C; for `O=C1CCC([N+](=O)[O-])C(c2cccc(Cl)c2)N1` (stereo not given), 131 to 133 °C.
Then `CS(=O)c1ccc(-c2cn3c(c2-c2ccccc2)CCC3)cc1` (stereo not given), with 67 to 68 °C.
Then `CCN(CC)CCNc1ccc2c3c(nn2CCO)-c2c(O)ccc(O)c2C(=O)c13`, with 231 to 234 °C; and `Nc1nc2ccccc2c2c1ncn2CCOCCCc1ncccn1`, with 126 to 127 °C; and `Cc1nnc(-c2ccc3occ(-c4cc(F)ccc4F)c3n2)o1`, with 185 to 186 °C.
With `Cc1cccc2oc(=O)c(=O)[nH]c12`, the melting point lay within 247 to 249 °C.
Then `CC(=O)OCc1csc(=S)n1CCC(=O)O`, with 144 °C; and `N#Cc1ccc(CC(NC(=O)CC(NS(=O)(=O)c2ccc3ccccc3c2)c2ccccc2)C(=O)N2CCCC2)cc1` (stereo not given), with 195 to 200 °C; and `COc1c(F)cc2[nH]c(C)c(CC(=O)OCC[Si](C)(C)C)c2c1F`, with 86.9 to 88.7 °C.
For the molecule `CCCCCCCCCCCCCCCCN1C(=O)C2=C(c3cccs3)N(CCCCCCCCCCCCCCCC)C(=O)C2=C1c1cccs1`, the melting point is 124 to 125 °C.
For `CCc1nc2c(N)nc3ccccc3c2n1CC(C)C` the value was 233 to 234 °C; for `Cc1nc2ccc(CBr)cc2c(=O)n1COC(=O)C(C)(C)C`, 144 to 145 °C.
Then `OC(CNC(=S)NCc1ccc(Cl)cc1)(Cn1cncn1)c1ccc(Cl)cc1Cl` (stereo not given), with 209 to 210 °C; and `COCN(COC)c1ccn2nc(-c3ccccc3)c(-c3ccc(=O)n(C(C)C)n3)c2c1`, with 148 to 150 °C; and `CCCOc1ccc(Br)c(C(C)=O)c1`, with 50 to 52 °C.
Then `O=C(O)c1ccccc1-c1ccc(Cc2nc(-c3ccccc3)nc3ccccc23)cc1`, with 210 °C; and `Cc1cccc(-c2n[nH]cc2-c2ccc(F)c(-c3csc(C(C)(C)O)n3)c2)n1`, with 78 to 80 °C; and `Cc1c(Cc2ccccc2)oc2cc(O)c(O)cc12`, with 95.5 to 98 °C.
Molecule `Cc1cc(Br)ccc1C(=O)NCC(F)(F)F` showed a melting point of 124 to 126 °C.
For `CN1CCCC1=NC(=S)Nc1ccccc1` the value was 142 to 144 °C; for `CC1CN(c2c(Cl)nc3ccc(F)cc3c2C(N)=O)CC(C)N1` (stereo not given), 169 to 170 °C; for `FC(F)(F)COc1ccc(OCc2ccccc2)cc1`, 72 to 74 °C.
For `O=C1CCCNc2ccc(Br)cc21`, the melting point fell in the range of 99 to 101 °C.
For `COc1c2c(c(OC)c(OC)c1OC)CCC(CCOc1ccccn1)CC2` the value was 132 to 135 °C; for `Cc1c(Br)c2c(c(C)c1NC=O)C(c1ccc(C(C)C)cc1)CO2` (stereo not given), 151 to 152 °C; for `Cc1ncoc1C(C)(N)c1ccoc1` (stereo not given), 82.5 to 83.5 °C.
Regarding `CCN(CC)C(=O)n1ccc(S(=O)(=O)c2c(F)cccc2F)n1`, the melting point fell in the range of 83 to 83.5 °C.
Turning to `COCN(c1cccc2cc(-c3ncn(C)n3)n(COC)c12)S(=O)(=O)c1cccs1`, the melting point lay in the range of 157 to 158 °C.
The molecule `CC(C#Cc1ccc2c(c1)CCN(Cc1ccc(-c3ccc(F)cc3)cn1)C2=O)N(O)C(N)=O` (stereo not given) showed a melting point of 118 to 120 °C.
Then `Oc1ccc2oc(-c3ccc(F)cc3)nc2c1`, with 166 to 168 °C.
The molecule `NC1=NC(c2ccc(OC(F)(F)F)cc2)(c2cccc(-c3cccnc3F)c2)C2=NOCCN12` (stereo not given) registered a melting point of 102 to 117 °C.
For `COc1ccccc1-c1nn(-c2ccccc2)c(=O)o1` the value was 112 to 115 °C; for `CN1CCN(c2cc(Br)cc3c2c(=O)n(Cc2ccccc2)c(=O)n3Cc2ccccc2)CC1`, 80 to 84 °C; for `CS(=O)(=O)c1ccc(-c2cnn(-c3cccc(Cl)c3)c(=O)c2SCc2ccco2)cc1`, 140 to 149 °C.
Then `NC(=C[N+](=O)[O-])NCc1ccc(Cl)cc1`, with 215 to 216 °C; and `O=c1c(O)cn(-c2cccc(C(F)(F)F)c2)nc1-c1ccnn1-c1ccccc1`, with 246 to 248 °C; and `CSc1nc(F)cc(F)n1`, with 31 to 32 °C.
For `Clc1ccccc1/C=C/C1=CCN(Cc2c[nH]c3ncccc23)CC1` the value was 174 to 176 °C; for `O=C(c1sc2c([N+](=O)[O-])c(O)c(O)cc2c1Cl)N1CCCCC1`, 254 to 256 °C.
Consider `Cc1nonc1-n1cc(C(=O)O)c(=O)c2cc(F)c(F)cc21`, for which the melting point is 238 to 241 °C.
For `COCOc1cc(OC)ccc1C(=O)c1cccc(OCc2nc(-c3ccccc3)oc2C)c1` the value was 117 to 118 °C.
The molecule `COc1c(F)cc(F)c(C(N)=O)c1F` showed a melting point of 102 °C.
For `COc1ccc(-c2ccc3c(n2)CCC(C)(C)C3=O)cc1` the value was 158 to 159 °C.
For the molecule `CN=Cc1ccc(-c2ccc(OC)c(Br)c2)cc1`, the melting point fell in the range of 115 to 117 °C.
Then `O=C(N[C@H]1CC(=O)N(c2cc(Cc3n[nH]c(=O)c4ccccc34)ccc2F)C1=O)OCc1ccccc1`, with 121 to 127 °C; and `CC(=O)Oc1ccc(C#C[Si](C)(C)C)cc1`, with 45 °C; and `CC(C)OC(=O)C1C(=S)NCC1C` (stereo not given), with 41 to 44 °C.
For `O=C(C=CCc1ccccc1)NCCCCCC(=O)NO` the value was 126 to 128 °C.
Then `COC1=CC(=O)CN(C)C1`, with 71 to 72 °C; and `Cc1ccc(-c2nnc(N3CCC(C)CC3)nc2-c2ccc(C)cc2)cc1`, with 140 to 142 °C.
For `Cc1cccc2c(C#N)cn(C)c12`, the melting point worked out at 116 °C.
On to `CCCCOc1ccc(-c2ncc(C#N)c(Cl)n2)cc1`, for which the melting point amounted to 170 °C.
For the molecule `CC(C)(Cl)c1cc(C(C)(C)Cl)cc(C(C)(C)Cl)c1`, the melting point came to 64 °C.
Then `CC(C)(C)c1ccc(-c2nc(NC(=O)c3ccccc3)sc2-c2ccncc2)cc1`, with 292 to 294 °C; and `CC(C)(C)C1=CC(=CC(=O)O)C=C(C(C)(C)C)C1=O`, with 148 to 150 °C.
With `CCC(C(=O)O)c1ccc(C(=O)c2ccc(Cl)cc2)n1C` (stereo not given), the melting point lay in the range of 108 to 112 °C.
For `Cc1cc(C)c(S(=O)(=O)NC(CNc2ccccc2)C(F)(F)F)c(C)c1` (stereo not given) the value was 82 to 86 °C; for `CC(NC(=O)Cc1cc(F)cc(F)c1)C(=O)NC1C(=O)N(C)Cc2ccccc21` (stereo not given), 174 to 175 °C; for `O=C(CC(C(=O)c1ccccc1)C(O)=S)c1ccccc1` (stereo not given), 142 to 144 °C.
Then `CCN(CC)CCOc1ccc(Nc2ncc3c(n2)N(C)C(=O)N(c2cc(Cl)ccc2Cl)C3)cc1`, with 138 °C.
Then `Oc1ccc2c(c1)C(Cc1ccnc(F)c1)(Cc1ccnc(F)c1)c1ccccc1-2`, with 200 to 201 °C.
`CCCC(=O)C(=CNc1ccc(OC(=O)c2ccccc2)cc1OC)C(=O)OCC` yielded a melting point of 85 to 87 °C.
For `S=C(NCc1ccccc1)N1CCc2c([nH]c3ccccc23)C1c1ccc2c(c1)OCO2` (stereo not given) the value was 205 to 207 °C; for `CN1CC(c2cccc(Cl)c2)=C(c2ccc(S(C)(=O)=O)cc2)C1=O`, 170 to 172 °C.
Then `CC1=NC(=NOC(=O)NC2CCC2)SC1(C)C`, with 94 to 96 °C.
Consider `COc1ccc(N2CCOCC2)c2sc(C(=O)NC3CCN(C(=O)OC(C)(C)C)CCC3O)nc12` (stereo not given), for which the melting point was in the range of 71 to 73 °C.
With `COc1ccc(C(=O)Nc2cc(NC(=O)c3ccc(N(C)CCCN(C)C)cc3)ccc2C)cc1OC`, the melting point was in the range of 164 to 165 °C.
For `O=C(O)c1ccc(N(CCOc2cccc3ccccc23)C(=O)C(F)(F)F)cc1` the value was 167 to 168 °C; for `CC(=O)NCc1c(C)cc(CN2CCN(c3ccc(F)cc3)CC2)cc1C`, 163 to 164 °C.
`CCCCc1nc(SCC)c(CO)[nH]1` registered a melting point of 128 °C.
For `COc1cc(-c2nc(NC(=O)c3c(C)c4cc(C)ccc4n3CC(=O)O)sc2CCC2CCCCC2)c(OC)cc1Cl` the value was 151 to 160 °C.
Then `O=C1c2ccccc2-c2c1c1ccccc1c(=O)n2CCO`, with 201 to 204 °C; and `CCCCNC(=O)C(O[Si](C)(C)C(C)(C)C)C(C)(C)C` (stereo not given), with 41 to 42 °C; and `CC(C)CC(=O)O[C@H]1C[C@H](O)C=C2C=C[C@H](C)[C@H](CC[C@@H]3C[C@@H](O)CC(=O)O3)[C@H]21`, with 153 to 155 °C.
In turn, `CC1=C(C(=O)c2ccc3c(c2)CN(C(N)=O)CC3)C(C)(C)CCC1` came in with a melting point of 92.5 to 93.6 °C.
For `COC(=O)C(=O)c1ccc(OCCOc2ccc(OC)cc2)cc1` the value was 114 to 115 °C.
For `COc1ccc(C(=O)Nc2ccc3ccc(OCC(=O)N(C)C)nc3n2)cc1` the value was 165 °C; for `COc1ccc(-c2c(Cl)c(CN3C(=O)CCC3=O)nc3sc4c(c23)CC(C)(C)C(=O)C4(F)F)cc1`, 200 to 202 °C.
For `CC1=CC2C(CC1)C(c1ccc(F)cc1)=NC(=O)N2C(C)C` (stereo not given) the value was 154 to 158 °C.
For the molecule `CC(C)Oc1cc(CCC(=O)NS(=O)(=O)c2ccc(C(F)(F)F)cc2)n(Cc2ccc(Cl)cc2Cl)n1`, the melting point was in the range of 167 to 169 °C.
Then `C=C(F)C(=O)Oc1c(Cl)c(Cl)c(Cl)c(Cl)c1Cl`, with 90 to 92 °C; and `CC(C)CC1OC[C@@H]2CCCN2C1=O` (stereo not given in full), with 61 to 65 °C; and `CC#CCOc1ccc(S(=O)(=O)C2(C(=O)O)CCN(Cc3ccc(C#N)cc3)CC2)cc1`, with 110 °C.
